From article PMC8634379, “From the Design to the In Vivo Evaluation of Benzohomoadamantane-Derived Soluble Epoxide Hydrolase Inhibitors for the Treatment of Acute Pancreatitis” (Journal of Medicinal Chemistry, 2021)

Columns and labels:
[1] = target: CYP 3A4 (Homo sapiens, UniProt P08684); test: Cytochrome P450 inhibition, fluorescence detection; assay type: in vitro ADME; conditions: at 10 μM; for CYP 3A4 (BFC) inhibition: substrate benzyloxytrifluoromethylcoumarin; for CYP 3A4 (DBF) inhibition: substrate dibenzylfluorescein
Protocol: The objective of this study was to screen the inhibition potential of the compounds using recombinant human cytochrome P450 enzymes CYP3A4 (BFC and DBF substrates) and probe substrates with fluorescent detection. Incubations were conducted in a 200 μL volume in 96-well microtiter plates (COSTAR 3915). The addition of the mixture buffer-cofactor (KH2PO4 buffer, 1.3 mM NADP, 3.3 mM MgCl2, 0.4 U/mL glucose-6-phosphate dehydrogenase), control supersomes, the Standard inhibitor Ketoconazole (Sigma K1003), and previously diluted compounds to plates was carried out by a liquid handling station (Zephyr Caliper). The plate was then preincubated at 37 °C for 5 min in a 100 μL volume, and reaction was initiated by the addition of a prewarmed enzyme/substrate (E/S) mix. The E/S mix contained buffer (KH2PO4), enzyme (CYP), substrate 7-benzyloxytrifluoromethyl coumarin (7-BFC), and dibenzylfluorescein (DBF) in a reaction volume of 200 μL. Reactions were terminated after various times depending on the substrate by addition of STOP solution (ACN/TrisHCl 0.5 M 80:20 (BFC) or 2 N NaOH for CYP3A4 (DBF). Fluorescence per well was measured using a fluorescence plate reader (Tecan M1000 pro) and percentage of inhibition was calculated.

[2] = target: T1, CYP 1A2 (Homo sapiens, UniProt P05177); test: Cytochrome P450 inhibition, fluorescence detection; assay type: in vitro ADME; conditions: at 10 μM
T1 sequence (P05177 1-516): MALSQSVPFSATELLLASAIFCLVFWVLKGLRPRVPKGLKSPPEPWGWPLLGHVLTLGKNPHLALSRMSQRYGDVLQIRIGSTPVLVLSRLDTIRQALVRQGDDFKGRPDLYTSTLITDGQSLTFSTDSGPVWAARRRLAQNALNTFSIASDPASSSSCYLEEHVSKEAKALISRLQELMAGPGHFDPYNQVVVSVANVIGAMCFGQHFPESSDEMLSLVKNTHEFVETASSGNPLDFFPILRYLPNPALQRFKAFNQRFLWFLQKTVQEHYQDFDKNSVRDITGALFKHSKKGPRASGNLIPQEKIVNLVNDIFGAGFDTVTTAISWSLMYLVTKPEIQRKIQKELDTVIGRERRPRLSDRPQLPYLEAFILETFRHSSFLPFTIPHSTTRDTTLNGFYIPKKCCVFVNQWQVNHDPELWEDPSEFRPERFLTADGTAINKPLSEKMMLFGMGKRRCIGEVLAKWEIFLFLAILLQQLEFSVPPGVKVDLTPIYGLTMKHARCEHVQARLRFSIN

[3] = Caco-2 cell permeability; assay type: in vitro ADME; conditions: human; for Papp A→B at 2 h, 10 µM / Papp B→A at 2 h, 10 µM: 37 °C; for efflux ratio at 2 h, 10 µM: ER = (Papp B→A)/(Papp A→B)
Protocol: The Caco-2 cells were cultured to confluency, trypsinized, and seeded onto a 96-filter transwell insert (Corning) at a density of ∼10,000 cells/well in DMEM cell culture medium supplemented with 10% fetal bovine serum, 2 mM L-glutamine, and 1% penicillin/streptomycin. Confluent Caco-2 cells were subcultured at passages 58–62 and grown in a humidified atmosphere of 5% CO2 at 37 °C. […] The cell monolayers were used for transport studies 21 days post seeding. […] Stock solutions were made in dimethyl sulfoxide (DMSO) and further diluted in HBSS (final DMSO concentration 1%). Each compound and reference compounds (Colchicine, E3S) were all tested at a final concentration of 10 μM. For A → B directional transport, the donor working solution was added to the apical (A) compartment and the transport media as receiver working solution was added to the basolateral (B) compartment. For B → A directional transport, the donor working was added to the basolateral (B) compartment and transport media as receiver working solution was added to the apical (A) compartment. The cells were incubated at 37 °C for 2 h with gentle stirring.
At the end of the incubation, samples were taken from both donor and receiver compartments and transferred into 384-well plates and analyzed by ultraperformance liquid chromatography–tandem mass spectrometry (UPLC–MS/MS). The detection was performed using an ACQUITY UPLC/Xevo TQD System.

[4] = target: T2, murine sEH (Mus musculus, UniProt P34914); test: sEH inhibition, fluorescent-based assay (CMNPC substrate); assay type: biochemical; conditions: purified recombinant enzyme, average of three replicates
T2 sequence (P34914 1-554): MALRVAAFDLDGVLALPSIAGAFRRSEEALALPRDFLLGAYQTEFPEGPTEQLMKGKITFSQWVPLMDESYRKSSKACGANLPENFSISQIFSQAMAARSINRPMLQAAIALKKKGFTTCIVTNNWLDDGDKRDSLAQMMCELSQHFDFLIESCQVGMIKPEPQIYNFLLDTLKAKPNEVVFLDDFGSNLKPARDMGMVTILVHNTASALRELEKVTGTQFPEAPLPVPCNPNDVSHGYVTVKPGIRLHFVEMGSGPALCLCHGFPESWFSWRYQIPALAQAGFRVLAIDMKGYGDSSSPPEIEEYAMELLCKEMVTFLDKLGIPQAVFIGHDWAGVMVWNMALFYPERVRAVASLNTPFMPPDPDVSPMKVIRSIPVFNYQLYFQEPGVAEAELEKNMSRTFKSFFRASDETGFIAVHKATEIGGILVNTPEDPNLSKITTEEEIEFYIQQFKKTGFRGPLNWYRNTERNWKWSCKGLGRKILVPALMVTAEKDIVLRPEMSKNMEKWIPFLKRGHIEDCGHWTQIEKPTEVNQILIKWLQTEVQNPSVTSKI
Protocol: The IC50 values reported herein were determined using a fluorescent-based assay (CMNPC as substrate).[16] The fluorescent assay was used with purified recombinant human, mouse, or rat sEH proteins. The enzymes were incubated at 30 °C with the inhibitors ([I]final = 0.4–100,000 nM) for 5 min in 100 mM sodium phosphate buffer (200 μL, pH 7.4) containing 0.1 mg/mL of BSA and 1% of DMSO. The substrate (CMNPC) was then added ([S]final = 5 μM). […] Results were obtained by regression analysis from a linear region of the curve.

CYP 3A4, sequence (P08684 whole entry): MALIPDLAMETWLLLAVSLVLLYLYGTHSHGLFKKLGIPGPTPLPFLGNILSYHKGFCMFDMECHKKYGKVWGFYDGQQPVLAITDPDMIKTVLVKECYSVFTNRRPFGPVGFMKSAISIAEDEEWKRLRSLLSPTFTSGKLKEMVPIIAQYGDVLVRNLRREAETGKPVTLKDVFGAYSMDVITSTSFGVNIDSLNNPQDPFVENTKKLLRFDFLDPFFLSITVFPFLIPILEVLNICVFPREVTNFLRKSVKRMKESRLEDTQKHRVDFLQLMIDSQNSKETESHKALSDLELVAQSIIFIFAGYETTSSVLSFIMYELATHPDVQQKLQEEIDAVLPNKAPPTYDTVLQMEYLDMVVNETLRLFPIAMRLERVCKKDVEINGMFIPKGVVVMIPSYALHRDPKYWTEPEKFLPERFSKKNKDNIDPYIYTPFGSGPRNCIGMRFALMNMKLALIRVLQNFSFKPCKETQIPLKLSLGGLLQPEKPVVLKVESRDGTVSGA

Papp A→B at 2 h, 10 µM [3]	Papp B→A at 2 h, 10 µM [3]	IC50 [4]	efflux ratio at 2 h, 10 µM [3]	SMILES	CYP 3A4 (BFC) inhibition [1]	CYP 3A4 (DBF) inhibition [1]	CYP 1A2 inhibition [2]
1 ×10⁻⁶ cm/s	12.4 ×10⁻⁶ cm/s	9.9 nM	12.4	CC12CC3CC(NC(=O)N[C@H]4CC[C@H](Oc5ccc(C(=O)O)cc5)CC4)(CC(C1)c1ccccc13)C2 [Compound 20, 4-[((1r,4r)-4-(3-(9-Methyl-5,6,8,9,10,11-Hexahydro-7H-5,9:7,11-dimethanobenzo[9]annulen-7-yl)ureido)cyclohexyl)oxy]benzoic Acid]	2 ± 2%	14 ± 1%	1 ± 2%
0.09 ×10⁻⁶ cm/s	21.9 ×10⁻⁶ cm/s	0.5 nM	244	O=C(NC12CC3CC(F)(CC(C1)c1ccccc13)C2)N[C@H]1CC[C@H](Oc2ccc(C(=O)O)cc2)CC1 [Compound 23, 4-[((1r,4r)-4-(3-(9-Fluoro-5,6,8,9,10,11-hexahydro-7H-5,9:7,11-dimethanobenzo[9]annulen-7-yl)ureido)cyclohexyl)oxy]benzoic Acid]	–	–	–

SMILES	Papp A→B at 2 h, 10 µM [3]	Papp B→A at 2 h, 10 µM [3]	IC50 [4]	efflux ratio at 2 h, 10 µM [3]	CYP 3A4 (BFC) inhibition [1]	CYP 3A4 (DBF) inhibition [1]	CYP 1A2 inhibition [2]
O=C(NC12CC3CC(Cl)(CC(C1)c1ccccc13)C2)N[C@H]1CC[C@H](Oc2ccc(C(=O)O)cc2)CC1 [Compound 22, 4-[((1r,4r)-4-(3-(9-Chloro-5,6,8,9,10,11-hexahydro-7H-5,9:7,11-dimethanobenzo[9]annulen-7-yl)ureido)cyclohexyl)oxy]benzoic Acid]	2.15 ×10⁻⁶ cm/s	4.66 ×10⁻⁶ cm/s	–	–	1 ± 2%	52 ± 4%	14 ± 4%
